From patent publication US20090305225A1, “Inhibition of Creatine Uptake to Promote Weight Loss” (priority 2005, published 2009)

Tests used:
[1] = test system: Fos (c-fos protein); assay: Fos immunohistochemistry of hypothalamic sections 4 hours after icv injection; type: in vivo, rat; details: 4 hours after icv injection, percent of area stained
Method: In experiments involving immunohistochemistry, animals were injected icv with beta-GPA or with vehicle. Four hours after injection, animals were anesthetized with halothane and perfused through the left ventricle of the heart, initially with oxygenated Krebs buffer and then with ˜350 ml of 4% paraformaldehyde in 0.1M NaCl, pH 7.4 phosphate buffered saline (PBS). Brains were extracted from the skull, hypothalamic blocks dissected (by coronal cuts anterior and posterior to hypothalamic landmarks) and post-fixed in 4% paraformaldehyde solution at 4 degrees C. overnight. The following day, the blocks were transferred to 30% sucrose and incubated overnight at 4 degrees C. After freezing in Optimum Cutting Temperature (OCT) compound (Sakura, Japan), blocks were sectioned coronally at 40 um on a cryostat and sections individually floated in multi-well dishes filled with PBS. Sections were treated for 30 minutes with 0.4% Triton detergent in potassium PBS to aid in antibody penetration. Primary antibodies were added, the plates shaken gently for 1 hour at room temperature, then incubated at 4 degrees C. for 72 hours. Sections were then brought to room temperature while shaking and the primary antibody solution was removed by washing 3 times with PBS buffer. After removal of the last wash, the secondary antibody solution was added and the plates incubated for 2 hours at room temperature in the dark. Removal of the second antibody was achieved by washing three times with PBS buffer prior to mounting on subbed slides. They were allowed to dry, rewetted with PBS buffer and cover-slipped with Citifluor (Ted Pella, Reading, Calif.).
Fos studies were performed using indirect fluorescence visualization. The method utilized rabbit c-Fos-AB5 (1:2,000; Oncogene Research Products, Cambridge, Mass.) with goat anti-rabbit Cy3 (1:500; Jackson Immuno Research Laboratories, West Grove, Pa.) as the secondary antibody. […] Staining observed in experimental tissue was compared to that observed from experiment-matched negative controls. […] Immunoreactive Fos (Fos IR) was quantified by capturing images at 10× using MagnaFire 2.0 Software. These images were imported into the Metamorph 6.1 Software package and density of staining measured using Hue Saturation Intensity. Regions outlining nuclei were hand drawn with an electric pen and the total areas and stained areas measured to yield percentages of total areas with specific Fos-IR. The values for left and right dorsomedial nuclei in each rat were averaged, and the averages used to calculate means. In the case of the III ventricle, the entire image was used for quantification prior to calculating the percentage of the area with Fos-IR.

[2] = Body weight after icv CoPP in rats; type: in vivo, rat; details: 48 hours after icv injection, 6 animals per group
Method: All animal handling was approved by and done in accordance with the guidelines and requirements of the University of Vermont Institutional Animal Care Use Committee. Adult male Sprague-Dawley rats (mycoplasma free; 200 g) were purchased from Charles River (Quebec, Canada) and housed in an air-conditioned (23+1° C.) room with lights on for 12 hours daily (starting at 6:00 a.m.) in the University of Vermont Animal Facility. Rats were housed singly in regular cages with free access to Purina Rat Chow (RMH 3000) and water for at least five days prior to surgery. Stereotactic surgery was used to implant chronic indwelling stainless steel cannulae into the third ventricle of the brain under fentanyl/droperidol anesthesia. Coordinates for cannula placement were obtained from the Konig Klippel stereotactic surgery atlas; with the nose bar 2.4 mm below the intraaural line and the vertical micrometer gantry tilted 9 degrees towards the animal, the coordinates were 4.9 mm dorsal to the intraaural line, 5 mm anterior to the intraaural line and 1.1 mm lateral to the midline. A minimum of 5 days later, animals were injected icv with CoPP (which was dissolved in 0.2 N NaOH and the pH adjusted to 7.4-7.8) or other experimental compounds. […] Because of the repetitive dosing regimens, animals were trained for six days prior to the first injection to ready them for injections without anesthesia. […]

## C=Cc1c(C)c2cc3[nH]c(cc4nc(cc5nc(cc1[nH]2)C(C)=C5CCC(=O)[O-])C(CCC(=O)[O-])=C4C)c(C)c3C=C.[Co+2] [CoPP, Cobaltic protoporphyrin IX]
[1]
  Fos IR in the dorsomedial nucleus: 6.86 ± 5.85%
  Fos IR in the paraventricular nucleus: 4.44 ± 2.22%
[1]; p<0.025
  Fos IR in the midsection of the ventral III ventricle: 48.3 ± 11.18%
[2]
  Δ Weight: −29%
